Experiment [1] deals with adjuvant-induced polyarthritis. Nature of the experiment: Modified developing adjuvant arthritis in rats (adjuvant-induced polyarthritis, AIP). The experiment is classed as in vivo, male Lewis rats. Conditions: Rattus norvegicus, po; for inhibition in vivo at 76 mg/kg: 76 mg/kg once daily p.o. d. 1-8; for inhibition in vivo at 50 mg/kg: 50 mg/kg once daily p.o. d. 1-8; for inhibition in vivo at 89 mg/kg: 89 mg/kg (d. 1-5) once daily p.o.; for inhibition in vivo at 100 mg/kg: 100 mg/kg once daily p.o. d. 1-8. The protocol:
A. Modified developing adjuvant arthritis in rats.
This test is based on the procedure originally described by Pearson (Proc. Soc. Biol. Med., 1956, pp 91-5). Each experimental group used six male Lewis rats weighing approx. 250 gm. Arthritis was produced by a single intradermal injection of Mycobacterium butyricum (0.6 mg in 0.1 ml mineral oil) into the base of the tail. Test compounds were administered orally, once daily, starting on the day of inoculation (day 1) through day 8. The initial dosage was reduced during this period when side effects were observed. The paw volume (average of two hind paws) was measured by the mercury displacement method at least twice weekly during the course of the experiment (40 to 42 days). The efficacy of a compound was expressed as the percent reduction of hind paw volume of treated vs. untreated rats using the following equation: [formula]
^a once daily, p.o., from d. 1-8 (unless otherwise specified).
^b % inhibition of paw edema: 0 = <25; + = 25-<40; ++ = 40-<60; +++ =

The test system of experiment [2] is carragenin-induced paw edema. The experiment is described as follows: Carrageenin induced paw edema in the rat (CIP). Conditions: single oral dose 50 mg/kg 30 min. prior to carrageenin, determined 4 hrs. after injection, read-out: CIP % inhib. (reduction in paw volume). In kind it is in vivo, male Sprague Dawley rats. The protocol: B. Carrageenin induced paw edema in the rat.
This test is based on the procedure originally described by Holsapple and Yim (Inflammation, 1984, 8:223). Six male Sprague Dawley rats weighing approx. 300 gm were used in each experimental group. The rats had been starved for 24 hours prior to injection of 0.1 ml of 1% carrageenin into the plantar surface of the left hind paw. Test compounds were dosed orally 30 minutes prior to carrageenin administration. The volumes of the left hind paws were measured by mercury displacement at 2,4, and 6 hours following carrageenin injection. The efficacy of a compound was expressed as the percent inhibition of carrageenin injected paw volume as compared to non-injected paw using the following equation: [formula] The peak of drug effects usually occurred 2-4 hours following carrageenin injection.
^c test compound administered as a single oral dose of 50 mg/kg 30
min. prior to carrageenin injection; % inhibition determined 4 hrs. after
carrageenin injection; I = <25% reduction in paw volume and A =
≥25% reduction in paw volume.

The mark [3] stands for this setting: 528 h, d. 20-22, read-out: AIP % inhib. (% inhibition of paw edema) d. 20-22.
The mark [4] stands for this setting: 1008 h, d. 40-42, read-out: AIP % inhib. (% inhibition of paw edema) d. 40-42.

The results in this text go back to patent publication US4935434A, “Antiarthritic isoxazole-4-carboxamides” (Bristol-Myers Company, priority 1988, dated 1990).

Structures are written as SMILES. Read-outs that look alike come from different tables or passages of the source.

On to `CC(C)NC(=O)c1cnoc1C1CC1` [Example 1, 5-Cyclopropylisoxazole-4-(N-isopropyl)carboxamide], for which the inhibition in vivo at 76 mg/kg in experiment [1] (setting [3]) was 25 to 40%; in experiment [1] (setting [4]), 40 to 60%. In experiment [2], the inhibition in vivo at 50 mg/kg was under 25%.
As to `CC(C)(C)NC(=O)c1cnoc1C1CC1` [Example 2, 5-Cyclopropylisoxazole-4-(N-tert-butyl)carboxamide], the inhibition in vivo at 50 mg/kg in experiment [1] (setting [3]) is 40 to 60%; in experiment [1] (setting [4]) it was 40 to 60%; in experiment [2] it was under 25%.
Consider `C#CCNC(=O)c1cnoc1C1CC1` [Example 3, 5-Cyclopropylisoxazole-4-[N-(2-propynyl)]carboxamide], for which the inhibition in vivo at 50 mg/kg in experiment [1] (setting [3]) is 40 to 60%; in experiment [1] (setting [4]) it was 40 to 60%; in experiment [2], under 25%.
`O=C(NC1CC1)c1cnoc1C1CC1` [Example 4, 5-Cyclopropylisoxazole-4-(N-cyclopropyl)carboxamide]: the inhibition in vivo at 89 mg/kg in experiment [1] (setting [3]) is 40 to 60%; in experiment [1] (setting [4]), 60 to 80%. In addition, in experiment [2], the inhibition in vivo at 50 mg/kg was under 25%.
For the compound `O=C(Nc1cccc(C(F)(F)F)c1)c1cnoc1C1CC1` [Example 5, 5-Cyclopropylisoxazole-4-carboxylic acid 4-(3-trifluoromethyl)anilide], the inhibition in vivo at 50 mg/kg in experiment [1] (setting [3]) is 40 to 60%; in experiment [1] (setting [4]), 60 to 80%; in experiment [2] it was at least 25%.
Consider `COc1ccc(NC(=O)c2cnoc2C2CC2)cc1` [Example 6, 5-Cyclopropylisoxazole-4-carboxylic acid (4-methoxy)anilide], for which the values for the inhibition in vivo at 100 mg/kg in experiment [1] (setting [3]) and in experiment [1] (setting [4]) were under 25% and 40 to 60%, respectively. The inhibition in vivo at 50 mg/kg in experiment [2] was under 25%.
Take `O=C(Nc1ccc(C(F)(F)F)cc1)c1cnoc1C1CC1` [Example 7, 5-Cyclopropylisoxazole-4-carboxylic acid 4-trifluoromethylanilide]: the inhibition in vivo at 50 mg/kg in experiment [2] was at least 25%.
Same read-out and setting: then `Cc1oncc1C(=O)NCc1ccc(C(F)(F)F)cc1` [Example 8, 5-Methylisoxazole-4-(N-4-trifluoromethylbenzyl)carboxamide], with under 25%.
